According to PubChem BioAssay (NCI):
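Five compound concentrations were applied to cells in 96-well plates for 48 hours; endpoints were derived by simple linear interpolation of the resulting dose-response curve. The concentration for 50% growth inhibition is given as GI50. TGI is the concentration that stops growth completely.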

Columns and labels:
Assay in all cases: DTP human tumour cell line panel, 48 h
[1] = tested on: SNB-75 CNS
[2] = tested on: MDA-MB-435
[3] = tested on: KM12 colon
[4] = tested on: DU-145 prostate
[5] = tested on: MDA-MB-231 breast
[6] = tested on: A498 renal
[7] = tested on: IGROV1 ovarian
[8] = tested on: COLO 205 colon
[9] = tested on: SF-539 CNS
[10] = tested on: OVCAR-4 ovarian
[11] = tested on: PC-3 prostate
[12] = tested on: CCRF-CEM leukemia
[13] = tested on: A549 NSCLC
[14] = tested on: K-562 leukemia
[15] = tested on: SK-MEL-5 melanoma
[16] = tested on: MCF7 breast
[17] = tested on: M14 melanoma
[18] = tested on: SF-295 CNS
[19] = tested on: HT29 colon
[20] = tested on: NCI-H23 lung
[21] = tested on: T-47D breast
[22] = tested on: UACC-62 melanoma
[23] = tested on: NCI-H522 lung
[24] = tested on: OVCAR-3 ovarian
[25] = tested on: RXF 393 renal
[26] = tested on: HCT-15 colon
[27] = tested on: BT-549 breast
[28] = tested on: HCT-116 colon
[29] = tested on: OVCAR-5 ovarian
[30] = tested on: MOLT-4 leukemia
[31] = tested on: HOP-62 NSCLC
[32] = tested on: RPMI-8226 leukemia
[33] = tested on: SF-268 CNS
[34] = tested on: U251 CNS
[35] = tested on: HS 578T breast
[36] = tested on: SW-620 colon
[37] = tested on: LOX IMVI melanoma
[38] = tested on: SN12C renal
[39] = tested on: SNB-19 CNS
[40] = tested on: NCI-H460 lung
[41] = tested on: EKVX NSCLC
[42] = tested on: 786-0 renal
[43] = tested on: SR leukemia
[44] = tested on: HL-60(TB) leukemia
[45] = tested on: SK-MEL-28 melanoma
[46] = tested on: NCI/ADR-RES ovarian
[47] = tested on: SK-OV-3 ovarian
[48] = tested on: NCI-H226 lung
[49] = tested on: HCC-2998 colon
[50] = tested on: CAKI-1 renal
[51] = tested on: ACHN renal
[52] = tested on: OVCAR-8 ovarian
[53] = tested on: UO-31 renal
[54] = tested on: UACC-257 melanoma
[55] = tested on: HOP-92 NSCLC
[56] = tested on: TK-10 renal
[57] = tested on: SK-MEL-2 melanoma
[58] = tested on: MALME-3M melanoma

COC(=O)[C@]12CC[C@@H](C)[C@H](C)[C@@H]1C1=CC[C@@H]3[C@@]4(C)CC(=O)[C@H](O)[C@@]5(C)COC(=C45)C[C@@]3(C)[C@]1(C)CC2
GI50 [1]: 16 µM | TGI [1]: 33 µM | GI50 [2]: 17 µM | TGI [2]: 32.5 µM | GI50 [3]: 17.7 µM | TGI [3]: 33.8 µM | GI50 [4]: 18.7 µM | TGI [4]: 35.1 µM | GI50 [5]: 20.1 µM | TGI [5]: 42.4 µM | GI50 [6]: 18.5 µM | TGI [6]: 33.2 µM | GI50 [7]: 19.3 µM | TGI [7]: 37.6 µM | GI50 [8]: 17.9 µM | TGI [8]: 33.5 µM | GI50 [9]: 18.8 µM | TGI [9]: 37.2 µM | GI50 [10]: 17.1 µM | TGI [10]: 36 µM | GI50 [11]: 16.9 µM | TGI [11]: 33.8 µM | GI50 [12]: 19.7 µM | TGI [12]: 43.5 µM | GI50 [13]: 23.9 µM | TGI [13]: 41.5 µM | GI50 [14]: 20.5 µM | TGI [14]: 41.8 µM | GI50 [15]: 16.6 µM | TGI [15]: 30.2 µM | GI50 [16]: 16.9 µM | TGI [16]: 35.6 µM | GI50 [17]: 18.5 µM | TGI [17]: 36.9 µM | GI50 [18]: 17.9 µM | TGI [18]: 33.7 µM | GI50 [19]: 19.2 µM | TGI [19]: 34.7 µM | GI50 [20]: 17.5 µM | TGI [20]: 35.7 µM | GI50 [21]: 18.4 µM | TGI [21]: 38.8 µM | GI50 [22]: 15.7 µM | TGI [22]: 31.6 µM | GI50 [23]: 19.4 µM | TGI [23]: 35.7 µM | GI50 [24]: 19 µM | TGI [24]: 34.8 µM | GI50 [25]: 15.2 µM | TGI [25]: 31.4 µM | GI50 [26]: 18 µM | TGI [26]: 33.4 µM | GI50 [27]: 17.3 µM | TGI [27]: 33.5 µM | GI50 [28]: 18.7 µM | TGI [28]: 34.3 µM | GI50 [29]: 18.4 µM | TGI [29]: 37.7 µM | GI50 [30]: 18.7 µM | TGI [30]: 39.1 µM | GI50 [31]: 16.9 µM | TGI [31]: 31.1 µM | GI50 [32]: 21 µM | TGI [32]: 45.7 µM | GI50 [33]: 19.2 µM | TGI [33]: 37.8 µM | GI50 [34]: 17.9 µM | TGI [34]: 31.9 µM | GI50 [35]: 18.4 µM | TGI [35]: 45 µM | GI50 [36]: 17.5 µM | TGI [36]: 33.6 µM | GI50 [37]: 17 µM | TGI [37]: 31.1 µM | GI50 [38]: 19 µM | TGI [38]: 39.2 µM | GI50 [39]: 19 µM | TGI [39]: 42.1 µM | GI50 [40]: 18.8 µM | TGI [40]: 37.5 µM | GI50 [41]: 17.4 µM | TGI [41]: 34.2 µM | GI50 [42]: 17.8 µM | TGI [42]: 34.2 µM | GI50 [43]: 20.4 µM | TGI [43]: 45.2 µM | GI50 [44]: 19.5 µM | TGI [44]: 40.9 µM | GI50 [45]: 19.2 µM | TGI [45]: 38.6 µM | GI50 [46]: 18.4 µM | TGI [46]: 37.6 µM | GI50 [47]: 18.2 µM | TGI [47]: 32.8 µM | GI50 [48]: 17.7 µM | TGI [48]: 38.7 µM | GI50 [49]: 17.7 µM | TGI [49]: 33.1 µM | GI50 [50]: 15.6 µM | TGI [50]: 29.3 µM | GI50 [51]: 18.3 µM | TGI [51]: 33.9 µM | GI50 [52]: 19.6 µM | TGI [52]: 39.2 µM | GI50 [53]: 16.9 µM | TGI [53]: 32.8 µM | GI50 [54]: 19.2 µM | TGI [54]: 33.4 µM | GI50 [55]: 14.3 µM | TGI [55]: 29.1 µM | GI50 [56]: 20.4 µM | TGI [56]: 38 µM | GI50 [57]: 18.9 µM | TGI [57]: 37.2 µM | GI50 [58]: 16.2 µM | TGI [58]: 30.7 µM
